Molecules are shown by their SMILES.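 These data come from cells grown in 96-well plates and exposed to compound for 48 hours at five concentrations. Here, GI50 denotes the concentration required for 50% inhibition of growth. TGI denotes the concentration required for complete inhibition of growth.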

Holding throughout (assay): NCI-60 cell line screen, 48 h
For experiment [1], the system named is ACHN renal.
For experiment [2], the system named is UACC-62 melanoma.
Experiment [3] concerns HL-60(TB) leukemia.
Experiment [4] has as its system OVCAR-5 ovarian.
Experiment [5] has as its system OVCAR-4 ovarian.
For experiment [6], the system named is OVCAR-3 ovarian.
For experiment [7], the system named is OVCAR-8 ovarian.
In experiment [8] the test system is UO-31 renal.
For experiment [9], the system named is SNB-19 CNS.
For experiment [10], the system named is SK-MEL-2 melanoma.

`COc1ccccc1NC(=O)C(CC(C(=O)Nc1ccccc1OC)/C(C)=N/Nc1ccc([N+](=O)[O-])cc1[N+](=O)[O-])/C(C)=N/Nc1ccc([N+](=O)[O-])cc1[N+](=O)[O-]` (stereo unspecified): the TGI in experiment [1], in experiment [2], in [3], in [4], in experiment [5] and in [6] was over 100 µM each time. In addition, the TGI in [7], in experiment [8], in experiment [9] and in experiment [10] was over 100 µM throughout.
Consider `COc1ccc(CCN2CCc3c(C)c(C#N)c4nc5ccccc5n4c32)cc1OC`, for which the TGI in [1] is over 100 µM; in experiment [2], 95.3 µM; in experiment [3], over 100 µM; in [4], over 100 µM; in [5] it was over 100 µM; in [6], over 100 µM. In addition, the TGI was over 100 µM in [7], over 100 µM in [8], over 100 µM in experiment [9] and 44.7 µM in experiment [10].
On to `CSc1ccc(C(=O)C(=O)c2ccc(SC)s2)s1`, for which the TGI in [1], in experiment [2], in experiment [3], in experiment [4], in experiment [5] and in experiment [6] was over 10 µM each time. Moreover, the TGI in [7], in [8], in [9] and in [10] was over 10 µM each time.
Regarding `CC(=O)N(Cc1ccccc1)c1ccccc1I(=O)=O`, the GI50 in [1] was 36 µM; in experiment [2], over 100 µM; in experiment [3], 14.9 µM; in [4], over 100 µM; in experiment [5], 65.4 µM; in experiment [6], 33.9 µM. The GI50 in [7] was 48.3 µM; in experiment [8], 38 µM; in [9] it was 82.2 µM; in [10] it was 63.6 µM. Further, the TGI in experiment [1] is over 100 µM; in experiment [2], over 100 µM; in experiment [3], 50.8 µM; in [4], over 100 µM; in [5], over 100 µM; in experiment [6], over 100 µM. The TGI in [7], in experiment [8], in experiment [9] and in experiment [10] was over 100 µM throughout.
On to `Cc1cc(Cl)ccc1Nc1nc(C(F)(F)F)ccc1C(=O)N1CCN(c2cccc(Cl)c2)CC1`, for which the GI50 is over 100 µM in [1]; over 100 µM in experiment [2]; 69.6 µM in [3]; over 100 µM in experiment [4]; 30 µM in experiment [5]; 7.82 µM in [6]. Further, the GI50 in experiment [7] was over 100 µM; in experiment [8], 67.3 µM; in [9], over 100 µM; in experiment [10], over 100 µM. Besides, the TGI in experiment [1], in experiment [2], in experiment [3], in [4], in experiment [5] and in [6] was over 100 µM throughout. The TGI in [7], in experiment [8], in [9] and in experiment [10] was over 100 µM throughout.
For `O=c1[nH]c2ccccc2n1-c1n[nH]c2ccccc12`, the GI50 is 29.9 µM in [1]; 33.6 µM in experiment [2]; 12.1 µM in experiment [3]; 33.6 µM in experiment [4]; 41.3 µM in experiment [5]; 27.5 µM in [6]. The GI50 in experiment [7] is 35.3 µM; in experiment [8], 12.5 µM; in experiment [9], 56.6 µM; in experiment [10], 29.3 µM. The TGI in [1] was over 100 µM; in experiment [2], 96.7 µM; in [3] it was 43.2 µM; in experiment [4] it was over 100 µM; in experiment [5], over 100 µM; in experiment [6], over 100 µM. For the same compound, the TGI in experiment [7], in experiment [8], in experiment [9] and in experiment [10] was over 100 µM throughout.
Turning to `COc1cc(NC(=O)Nc2cnc(Nc3ccc(N4CCOCC4)cc3)nc2Oc2cccc(OC)c2)cc(OC)c1`, the GI50 in experiment [1] is 1.61 µM; in [2], 1.35 µM; in experiment [3] it was 2.76 µM; in [4] it was 6.49 µM; in [5], 1.13 µM; in experiment [6] it was 1.27 µM. Also, the GI50 in [7] was 1.31 µM; in [8] it was 1.3 µM; in experiment [9], 5.73 µM; in experiment [10], 1.74 µM. For the same compound, the TGI was 6.84 µM in experiment [1]; 4.04 µM in [2]; over 50 µM in experiment [3]; 41.6 µM in [4]; 2.69 µM in [5]; 3.25 µM in experiment [6]. In addition, the TGI in [7] is 3.19 µM; in experiment [8], 6.74 µM; in [9], over 50 µM; in [10], 8.67 µM.
In the case of `Cc1c(C(=O)CSc2nc3ccccc3[nH]2)c(=O)n(-c2ccccc2)n1C`, the TGI in experiment [1], in experiment [3], in experiment [4], in experiment [5], in experiment [6] and in experiment [7] was over 100 µM in each case. The TGI in experiment [8], in experiment [9] and in [10] was over 100 µM in each case.
As for `CCC1CNC(=O)CC1CC(=O)OC` (stereo unspecified), the TGI in [1], in [2], in experiment [3], in experiment [4], in experiment [5] and in [6] was over 100 µM each time. Moreover, the TGI in experiment [8], in experiment [9] and in experiment [10] was over 100 µM each time.
For `CO[C@@]12[C@@H]3NC3CN1C1=C(C(=O)C(N)=C(C)C1=O)[C@@H]2COC(N)=O` (stereo partly specified), the TGI turned out to be 1.63 µM in experiment [1]; 7.43 µM in experiment [3]; 6.99 µM in [4]; 33.9 µM in experiment [5]; 3.07 µM in [6]; 3.04 µM in experiment [8]. Further, in experiment [10], the TGI was found to be 4.41 µM. In addition, the GI50 in [3] was 0.0862 µM; in [4] it was 1.02 µM; in [5], 2.22 µM; in [6] it was 1.07 µM; in experiment [8] it was 0.465 µM; in experiment [10] it was 1.91 µM.

These data come from PubChem BioAssay (NCI).
